These are literature values, as cited in PMC12495087 (ESMO Open, 2025).

Read-outs that look alike come from different tables or passages of the source.

The subject of series [1] is RET-fusion-positive NSCLC. Particulars: cited from earlier work.
Series [2] has as its system RET-fusion-positive solid tumors including RET-mutant MTC. Particulars: cited from earlier work.
The conditions of series [3]: cited from earlier work.
The mark [4] stands for this setting: advanced RET-rearranged lung adenocarcinomas.
[5] abbreviates: patients with MTC harboring RET-M918T.
Where [6] appears, read: previously treated RET-fusion-positive NSCLC, selpercatinib 160 mg twice daily, pralsetinib 400 mg once daily.
Where [7] appears, read: previously treated RET-fusion-positive solid tumors including RET-mutant MTC, 160 mg twice daily.

As for `COc1cc2nccc(Oc3ccc(NC(=O)C4(C(=O)Nc5ccc(F)cc5)CC4)cc3)c2cc1OC` [cabozantinib], in series [1] (setting [4]), the ORR is recorded as 28% and the mPFS is given as 5.5 months.

With `COc1cc2nccc(Oc3ccc(NC(=O)NC4CC4)c(Cl)c3)c2cc1C(N)=O` [lenvatinib], in series [2] (setting [5]), the ORR was 16% and the mPFS is 7.3 months.

Consider `CO[C@]1(C(=O)N[C@@H](C)c2ccc(-n3cc(F)cn3)nc2)CC[C@H](c2nc(C)cc(Nc3cc(C)[nH]n3)n2)CC1` [pralsetinib], for which the ORR in series [1] (setting [6]) is given as 61%. Moreover, the “grade ≥3 hypertension” value in series [3] is reported as around 18%.

`COc1ccc(CN2C3CC2CN(c2ccc(-c4cc(OCC(C)(C)O)cn5ncc(C#N)c45)cn2)C3)cn1` [selpercatinib]: the mPFS in series [1] (previously treated RET-fusion-positive NSCLC, 160 mg twice daily) is reported as 16.5 months; in series [2] (setting [7]) it was 13.2 months. Also, in series [1] (setting [6]), the ORR is 64%. Besides, the “1-year PFS” value in series [2] (setting [7]) is reported as 82%. Moreover, in series [3], the “grade ≥3 hypertension” value is “around 20%”.
